Data taken from ChEMBL document CHEMBL5113392, “Novel hybrid pyrrolidinedione-thiazolidinones as potential anticancer agents: Synthesis and biological evaluation” (Eur J Med Chem, 2022).
Active and inactive are the calls of the source. The calls are words filed in the database; no cut-off is given here.

What was measured:
[1] = Selectivity index, ratio of GI50 for human HaCaT cells to GI50 for human KB 3-1 cells; type: toxicity; conditions: HaCaT cells versus KB 3-1 cells, read-out: RatioGI50
[2] = Anticancer activity against human HCT116-p53-null cells assessed as cell growth inhibition incubated for 72 hrs by MTT assay; type: functional
[3] = system: Jurkat; assay: Anticancer activity against human Jurkat cells assessed as cell growth inhibition incubated for 72 hrs by MTT assay; type: functional
[4] = Selectivity index, ratio of GI50 for human HaCaT cells to GI50 for human SK-OV-3 cells; type: toxicity; conditions: HaCaT cells versus SK-OV-3 cells, read-out: RatioGI50
[5] = system: MDA-MB-231; assay: Anticancer activity against human MDA-MB-231 cells assessed as cell growth inhibition incubated for 72 hrs by MTT assay; type: functional
[6] = system: HCT-116; assay: Anticancer activity against human HCT-116 cells assessed as cell growth inhibition incubated for 72 hrs by MTT assay; type: functional
[7] = Selectivity index, ratio of GI50 for human HaCaT cells to GI50 for human HCT-116 cells; type: toxicity; conditions: HaCaT cells versus HCT-116 cells, read-out: RatioGI50
[8] = Selectivity index, ratio of GI50 for human HaCaT cells to GI50 for human Jurkat cells; type: toxicity; conditions: HaCaT cells versus Jurkat cells, read-out: RatioGI50
[9] = Selectivity index, ratio of GI50 for human HaCaT cells to GI50 for human MCF7 cells; type: toxicity; conditions: HaCaT cells versus MCF7 cells, read-out: RatioGI50
[10] = Selectivity index, ratio of GI50 for human HaCaT cells to GI50 for human HeLa cells; type: toxicity; conditions: HaCaT cells versus HeLa cells, read-out: RatioGI50
[11] = Selectivity index, ratio of GI50 for human HaCaT cells to GI50 for human A549 cells; type: toxicity; conditions: HaCaT cells versus A549 cells, read-out: RatioGI50
[12] = system: SK-OV-3; assay: Anticancer activity against human SK-OV-3 cells assessed as cell growth inhibition incubated for 72 hrs by MTT assay; type: functional
[13] = system: HeLa; assay: Anticancer activity against human HeLa cells assessed as cell growth inhibition incubated for 72 hrs by MTT assay; type: functional
[14] = system: KB 3-1; assay: Anticancer activity against human KB 3-1 cells assessed as cell growth inhibition incubated for 72 hrs by MTT assay; type: functional
[15] = Selectivity index, ratio of GI50 for human HaCaT cells to GI50 for human U-251 cells; type: toxicity; conditions: HaCaT cells versus U-251 cells, read-out: RatioGI50
[16] = Cytotoxicity against mitogen activated human peripheral blood lymphocytes assessed as cell growth inhibition incubated for 48 hrs by MTT assay; type: toxicity, cell-based, Lymphocyte
[17] = Cytotoxicity against mitogen activated human peripheral blood lymphocytes assessed as cell growth inhibition incubated for 24 hrs by MTT assay; type: toxicity, cell-based, Lymphocyte
[18] = system: CAKI-1; assay: Anticancer activity against human CAKI-1 cells assessed as inhibition of cell growth at 10 uM incubated for 48 hrs by SRB assay; type: functional; conditions: CAKI-1, 48 h, values are per cent of control
[19] = Selectivity index, ratio of GI50 for human HaCaT cells to GI50 for human MDA-MB-231 cells; type: toxicity; conditions: HaCaT cells versus MDA-MB-231 cells, read-out: RatioGI50
[20] = system: MDA-MB-435; assay: Anticancer activity against human MDA-MB-435 cells assessed as inhibition of cell growth at 10 uM incubated for 48 hrs by SRB assay; type: functional
[21] = Selectivity index, ratio of GI50 for human HaCaT cells to GI50 for human HCT116-p53-null cells; type: toxicity; conditions: HaCaT cells versus HCT116-p53-null cells, read-out: RatioGI50
[22] = system: U-251; assay: Anticancer activity against human U-251 cells assessed as cell growth inhibition incubated for 72 hrs by MTT assay; type: functional
[23] = Cytotoxicity against human HaCaT cells assessed as cell growth inhibition incubated for 72 hrs by MTT assay; type: toxicity, cell-based
[24] = system: A549; assay: Anticancer activity against human A549 cells assessed as cell growth inhibition incubated for 72 hrs by MTT assay; type: functional
[25] = system: MCF7; assay: Anticancer activity against human MCF7 cells assessed as cell growth inhibition incubated for 72 hrs by MTT assay; type: functional
[26] = system: LOX IMVI; assay: Anticancer activity against human LOX IMVI cells assessed as inhibition of cell growth at 10 uM incubated for 48 hrs by SRB assay; type: functional
[27] = system: RPMI-8226; assay: Anticancer activity against human RPMI-8226 cells assessed as inhibition of cell growth at 10 uM incubated for 48 hrs by SRB assay; type: functional
[28] = system: MCF7; assay: Anticancer activity against human MCF7 cells assessed as inhibition of cell growth at 10 uM incubated for 48 hrs by SRB assay; type: functional; conditions: MCF7, 48 h, values are per cent of control
[29] = system: Jurkat; assay: Induction of apoptosis in human Jurkat cells assessed as increase in Bax level at 0.5 uM for 24 hrs by Western blot analysis; type: functional, cell-based
[30] = system: Salmon testes DNA; assay: Displacement of methyl green from salmon sperm DNA at 10 uM measured after 2 hrs by fluorescence plate reader method relative to control; type: nucleic-acid assay; conditions: Salmo salar
[31] = system: Jurkat; assay: Induction of morphological changes in human Jurkat cells assessed as change in cell shape incubated for 24 hrs by Hoechst 33258 and propidium iodide staining based fluorescence microscopy; type: functional
[32] = system: Jurkat; assay: Induction of morphological changes in human Jurkat cells assessed as chromatin fragmentation incubated for 24 hrs by Hoechst 33258 and propidium iodide staining based fluorescence microscopy; type: functional, cell-based
[33] = system: Jurkat; assay: Induction of apoptosis in human Jurkat cells assessed as decrease in Endo-G protein level at 0.5 uM for 24 hrs by Western blot analysis; type: functional, cell-based
[34] = system: HCT-116; assay: Induction of DNA damage in human HCT-116 cell lysate assessed as tail DNA at 0.5 uM incubated for 2 hrs in dark by Comet assay; type: functional
[35] = system: HCT-116; assay: Induction of DNA damage in human HCT-116 cells assessed as tail DNA at 0.5 uM incubated for 2 hrs by alkaline Comet assay; type: functional
[36] = system: HCT-116; assay: Induction of DNA damage in human HCT-116 cells assessed as olive tail moment at 0.5 uM incubated for 2 hrs by alkaline Comet assay; type: functional
[37] = system: Jurkat; assay: Induction of DNA damage in human Jurkat cells assessed as tail DNA at 0.5 uM incubated for 24 hrs by alkaline Comet assay; type: functional
[38] = system: HCT-116; assay: Induction of DNA damage in human HCT-116 cell lysate assessed as olive tail moment at 0.5 uM incubated for 2 hrs in dark by Comet assay; type: functional
[39] = system: Jurkat; assay: Induction of apoptosis in human Jurkat cells assessed as decrease in Bcl-2 level at 0.5 uM for 24 hrs by Western blot analysis; type: functional, cell-based
[40] = system: Lymphocyte; assay: Induction of DNA damage in mitogen activated human peripheral blood lymphocytes assessed as olive tail moment at 0.5 uM incubated for 24 hrs by alkaline Comet assay; type: toxicity, cell-based
[41] = system: Jurkat; assay: Induction of morphological changes in human Jurkat cells assessed as plasma membrane blebbing incubated for 24 hrs by Hoechst 33258 and propidium iodide staining based fluorescence microscopy; type: functional, cell-based
[42] = system: Jurkat; assay: Induction of DNA damage in human Jurkat cells assessed as olive tail moment at 0.5 uM incubated for 24 hrs by alkaline Comet assay; type: functional
[43] = system: Jurkat; assay: Induction of morphological changes in human Jurkat cells assessed as chromatin condensation incubated for 24 hrs by Hoechst 33258 and propidium iodide staining based fluorescence microscopy; type: functional, cell-based
[44] = system: Jurkat; assay: Induction of morphological changes in human Jurkat cells assessed as chromatin topology incubated for 24 hrs by Hoechst 33258 and propidium iodide staining based fluorescence microscopy; type: functional, cell-based
[45] = system: Salmon testes DNA; assay: Binding affinity to double stranded salmon sperm DNA assessed as increase in DNA oxidation level by measuring net change in absorbance at 10 uM incubated for 1 hr by UV based spectroscopic method; type: nucleic-acid assay; conditions: Salmo salar
[46] = system: Lymphocyte; assay: Induction of DNA damage in mitogen activated human peripheral blood lymphocytes assessed as tail DNA at 0.5 uM incubated for 24 hrs by alkaline Comet assay; type: toxicity, cell-based
[47] = system: Jurkat; assay: Induction of apoptosis in human Jurkat cells assessed as increase in cleaved capase-3 level at 0.5 uM for 24 hrs by Western blot analysis; type: functional, cell-based
[48] = system: UACC-62; assay: Anticancer activity against human UACC-62 cells assessed as inhibition of cell growth at 10 uM incubated for 48 hrs by SRB assay; type: functional
[49] = system: MOLT-4; assay: Anticancer activity against human MOLT-4 cells assessed as inhibition of cell growth at 10 uM incubated for 48 hrs by SRB assay; type: functional

Row | SMILES | GI50 [2] [µM] | GI50 [3] [µM] | selectivity ratio [4] | GI50 [5] [µM] | GI50 [6] [µM] | selectivity ratio [7] | selectivity ratio [8] | selectivity ratio [9] | selectivity ratio [10] | selectivity ratio [11] | GI50 [12] [µM] | GI50 [13] [µM] | GI50 [14] [µM] | selectivity ratio [15] | GI50 at 48 h [16] [µM] | GI50 at 24 h [17] [µM] | GI50 [22] [µM] | GI50 at 72 h [23] [µM] | GI50 [24] [µM] | GI50 [25] [µM] | other results
1 | C=CCOc1ccccc1/C=C1\SC(=S)N(C2CC(=O)N(c3ccc(Cl)cc3)C2=O)C1=O (stereo unspecified) | 9.6 | 53.3 | 1 | 98.6 | 57.1 | 1.75 | 1.88 | 1.25 | 2.1 | 1 | > 100 | 47.5 | > 100 | 1.1 | > 100 | > 100 | 91.2 | > 100 | > 100 | 80.3 | selectivity ratio [1]: 1; growth, % of control at 10 µM [18]: 72.2%; selectivity ratio [19]: 1.01; inhibition at 10 µM [20]: 68.2%; selectivity ratio [21]: 10.4
2 | O=C1Nc2ccccc2/C1=C1/SC(=S)N(C2CC(=O)N(c3ccc(Br)cc3)C2=O)C1=O (stereo unspecified) | > 100 | 21.5 | 1 | > 100 | > 100 | 1 | 4.65 | 1 | 1 | 1 | > 100 | > 100 | – | 1 | – | – | > 100 | > 100 | > 100 | > 100 | inhibition at 10 µM [26]: 33.8%; inhibition at 10 µM [27]: 50%; growth, % of control at 10 µM [28]: 45.7%; selectivity ratio [19]: 1; selectivity ratio [21]: 1
3 | COc1cccc2c1C(=O)c1c(O)c3c(c(O)c1C2=O)C[C@@](O)(C(=O)CO)C[C@@H]3O[C@H]1C[C@H](N)[C@H](O)[C@H](C)O1 [DOXORUBICIN] | 2.8 | 0.43 | – | 5.95 | 0.57 | – | – | – | – | – | 9.1 | 0.7 | 0.98 | – | 0.5 | 2.9 | 0.89 | 0.64 | 0.97 | 0.75 | Activity [29]: Active; Activity [30]: 68.7%; Activity [31]: Active; Activity [32]: Active; Activity [33]: Active; Activity [34]: 12.6%; Activity [35]: 18%; Activity [36]: 1%; Activity [37]: 40.9%; Activity [38]: 1.95%; Activity [39]: Active; Activity [40]: 8.12%; Activity [41]: Active; Activity [42]: 12.23%; Activity [43]: Active; Activity [44]: Active; Activity [45]: Active; Activity [46]: 25.9%; Activity [47]: Active
4 | CCN(CC)c1ccc(/C=C2\SC(=S)N(C3CC(=O)N(c4ccc(Cl)cc4)C3=O)C2=O)cc1 (stereo unspecified) | – | – | – | – | – | – | – | – | – | – | – | – | – | – | – | – | – | – | – | – | inhibition at 10 µM [48]: 73.3%; inhibition at 10 µM [49]: 76%
